Assay results reported in article PMC9671962 (Communications Biology, 2022).
Values joined by “and” are separate entries in the source; they are usually repeats but may differ in a detail not shown here. Identical values can stand only once.

Tests used:
[1] = format: in vivo; details: CB57/BL6 mice; twice weekly, total of 4 dose fractions
Description: (§1) Toxicity studies were done in nontumor bearing CB-17 SCID mice (Taconic Biosciences). […] Each arm had n = 10 mice (5 male, 5 female mice). […] The vehicle group received an equal volume of saline (placebo). Weights were obtained twice weekly and mice were monitored daily for signs of toxicity. […] On target hematological and marrow toxicity which was evaluated by complete blood counts and marrow colony formation assay. An additional study was performed under identical conditions to evaluate additive dose effects. […] Each treatment group was composed of equal numbers of male and female mice to rule out gender-specific effects (n = 4 per treatment group per time point). Mice were followed for signs of acute toxicity for 2 weeks and 4 weeks before euthanasia. An additional group (n = 4) treated at 36 MBq/kg was euthanized after 72 h to assess early signs of toxicity by colony formation assays. This time course was chosen to best capture the nadir of bone marrow suppression. After euthanasia, blood was collected and femurs were dissected and processed for histopathology and bone marrow evaluation.
Supplementary Fi g u re 4: To le r a b ilit y studies to determine hematological and marrow toxicity of
[211At]PTT in CB57BL6 mice. a) Maximum tolerated dose finding studies fo r [211At]PTT administered
as 4 dose fractions given twice weekly in CB57BL6 mice. b) Complete blood counts assessed at 72 […]

[2] = tested on: platelets, white blood cells, lymphocytes, neutrophils; test: Hematological toxicity by complete blood counts; format: in vivo, CB-17 SCID mice; design: Neutrophils / Lymphocytes / WBC: unit not given here; details: for Lymphocytes / Neutrophils / Platelets / WBC: 72 hours post-treatment, single mouse
Description: as §1
Animals were monitored weekly for weight and daily for signs of distress until the time of euthanasia. […] Mice were anesthetized with mixed inhalation isoflurane/oxygen under a nosecone. Terminal cardiac puncture was performed and peripheral blood was transferred to K2EDTA BD Microtainer tubes (BD, San Antonio, TX). Sample volume injected was 20 µL and was pre-specified using the mouse protocol on the instrument.

[3] = Biodistribution in healthy CB57/BL6 mice with estimated human dosimetry (OLINDA/EXM); format: in vivo
Description: Using female mice was justified due to the lack of sex-related differences observed from initial dose-finding studies. […] At various time points mice were euthanized and tissues were harvested, weighed, and assayed for radioactivity by gamma counter. Decay corrected data is presented as percent injected dose per gram of tissue (%ID/g). […]
Animal studies were performed in female mice due to the lack of sex-related differences for [^211At]PTT tolerability from initial dose response studies performed in female and male mice. Female mice were chosen due to their underlying behavior towards other study subjects that reduced nonstudy-related causes for decreased wellness. Pre-clinical efficacy studies were performed through “single mouse testing” to more closely recapitulate a clinical trial. […] Number size for treatment groups was determined by model tumor growth reproducibility, which was previously shown to have less than 5% normal variation with at least two animals. Statistical tests for tumor response and event-free survival (EFS) were performed as a grouped analysis that included all tumor models treated at each respective dose level (n = 2 per model per dose level). Statistical differences between treatment groups for tumor response was performed by paired-model T-test that compared reduction in tumor volume for the 36 MBq/kg dose level vs. 24 MBq/kg or 12 MBq/kg. Event free survival was measured by area over the curve method to quantify time to event, which was set as tumor growth exceeding 2 cm[3],[19]. Differences in EFS were tested across all treated models for each respective dose level, and against untreated controls, by paired-model ANOVA analysis. Associations of drug target expression and response were performed by linear regression analysis of EFS and PARP1 mRNA expression. Genetic signatures were visually presented as a function of EFS and no statistical tests were applied. Blood and marrow toxicity studies were performed with n = 5 sample sizes and powered to detect >20% differences between untreated controls and treated animals. Results were tested for significance by one-way ANOVA comparison from untreated controls. Marrow colony formation assays were performed in replicates of 2 for each mouse subject, dependent on marrow isolation, and all replicates are included in final analyses. Statistical analysis was performed by ordinary one-way ANOVA comparison between the mean of control and test groups. Biodistribution studies were performed with n = 3 mice per time-point. Human dosimetry was calculated using OLINDA/EXM v1.1 software by fitting time activity curves for biodistribution data in a healthy mouse model. Tumor dosimetry was calculated by OLINDA/EXM v1.1 by fitting time activity curves for NB-EBC1 tumors from biodistribution data. All statistical analyses were performed in GraphPad Prism version 9.3.1 unless indicated otherwise.

[4] = tested on: PARP1; test: Clinical PET imaging / first-in-human dosimetry of [^18F]FTT and extrapolation to [^211At]PTT; format: in vivo
[5] = 1-year-old, from CB57/BL6 mouse biodistribution
[6] = 5-year-old, from CB57/BL6 mouse biodistribution

## O=C1NCCn2c(-c3ccc([211At])cc3)nc3cccc1c32 [[^211At]PTT, Astatine-211-parthanatine]
[1]
  MTD: 48 MBq/kg/fraction
[2]; 3 or less dose fractions at the 36 MBq/kg dose level
  thrombocytopenia: did not result in thrombocytopenia
[2]; 36 MBq/kg x 4 dose fractions
  Lymphocytes: 0.28 and 0.26 and 0.38 and 0.27
  Neutrophils: 0.42 and 0.22 and 0.16 and 0.34
  Platelets: 263 K/uL and 99 K/uL and 201 K/uL and 158 K/uL and 200 K/uL
  WBC: 0.78 and 0.26 and 0.58 and 0.62 and 0.7
[2]; 48 MBq/kg x 4 dose fractions
  Lymphocytes: 0.14 and 0.29 and 0.08 and 0.12 and 0.25
  Neutrophils: 0.24 and 0.18 and 0.26 and 0.09 and 0.13
  Platelets: 200 K/uL and 160 K/uL and 240 K/uL and 190 K/uL and 133 K/uL
  WBC: 0.5 and 0.6 and 0.36 and 0.26 and 0.48
[2]; 60 MBq/kg x 4 dose fractions
  Lymphocytes: 0.28 and 0.29 and 0.41 and 0.11
  Neutrophils: 0.41 and 0.09 and 0.71 and 0.08
  Platelets: 112 K/uL and 166 K/uL and 138 K/uL and 165 K/uL and 116 K/uL
  WBC: 0.14 and 0.76 and 0.44 and 1.42 and 0.22
[2]; 72 hours after the final dose fraction, 36, 48, 60 MBq/kg/fraction x 4
  Hematological toxicity versus control: significant reductions in platelets, white blood cells, and lymphocytes at all dose levels
[2]; post-therapy at the MTD
  time of full recovery from hematological and marrow toxicity: ≤ 4 weeks
[2]; post-treatment, 2 or 3 dose fractions of 36 MBq/kg
  time of full recovery of peripheral blood counts: 4 weeks
[2]; treatment with [^211At]PTT
  Effect on neutrophils: largely unaffected
[3]; 0.02 kg mouse, 36 MBq/kg
  marrow dose per dose fraction: approximately 2.5 Gy
[3]; [5]
  Estimated human dosimetry, Adrenals: 0.005 Gy per MBq/kg
  Estimated human dosimetry, Brain: 0.002 Gy per MBq/kg
  Estimated human dosimetry, Breasts: 0.005 Gy per MBq/kg
  Estimated human dosimetry, Gallbladder: 0.005 Gy per MBq/kg
  Estimated human dosimetry, Heart: 0.017 Gy per MBq/kg and 0.026 Gy per MBq/kg and 0.020 Gy per MBq/kg
  Estimated human dosimetry, Kidneys: 0.021 Gy per MBq/kg and 0.034 Gy per MBq/kg and 0.028 Gy per MBq/kg
  Estimated human dosimetry, Left Colon: 0.005 Gy per MBq/kg and 0.006 Gy per MBq/kg
  Estimated human dosimetry, Liver: 0.019 Gy per MBq/kg and 0.018 Gy per MBq/kg and 0.033 Gy per MBq/kg
  Estimated human dosimetry, Muscle: 0.008 Gy per MBq/kg and 0.016 Gy per MBq/kg
  Estimated human dosimetry, Ovaries: 0.005 Gy per MBq/kg
  Estimated human dosimetry, Red Marrow: 0.070 Gy per MBq/kg and 0.091 Gy per MBq/kg and 0.065 Gy per MBq/kg and 0.073 Gy per MBq/kg
  Estimated human dosimetry, Right Colon: 0.005 Gy per MBq/kg and 0.006 Gy per MBq/kg
  Estimated human dosimetry, Skin: 0.005 Gy per MBq/kg
  Estimated human dosimetry, Small Intestine: 0.005 Gy per MBq/kg
  Estimated human dosimetry, Spleen: 0.061 Gy per MBq/kg and 0.070 Gy per MBq/kg and 0.084 Gy per MBq/kg and 0.051 Gy per MBq/kg
  Estimated human dosimetry, Stomach: 0.005 Gy per MBq/kg
  Estimated human dosimetry, Testes: 0.005 Gy per MBq/kg
  Estimated human dosimetry, Thymus: 0.005 Gy per MBq/kg
  Estimated human dosimetry, Total Body: 0.009 Gy per MBq/kg and 0.010 Gy per MBq/kg and 0.011 Gy per MBq/kg
  Estimated human dosimetry, Urinary Bladder: 0.005 Gy per MBq/kg
  Estimated human dosimetry, Uterus: 0.005 Gy per MBq/kg
[3]; [6]
  Estimated human dosimetry, Adrenals: 0.004 Gy per MBq/kg and 0.005 Gy per MBq/kg
  Estimated human dosimetry, Brain: 0.002 Gy per MBq/kg and 0.001 Gy per MBq/kg
  Estimated human dosimetry, Breasts: 0.004 Gy per MBq/kg and 0.005 Gy per MBq/kg
  Estimated human dosimetry, Gallbladder: 0.004 Gy per MBq/kg and 0.005 Gy per MBq/kg
  Estimated human dosimetry, Heart: 0.015 Gy per MBq/kg and 0.016 Gy per MBq/kg and 0.024 Gy per MBq/kg and 0.018 Gy per MBq/kg
  Estimated human dosimetry, Kidneys: 0.018 Gy per MBq/kg and 0.029 Gy per MBq/kg and 0.023 Gy per MBq/kg
  Estimated human dosimetry, Left Colon: 0.004 Gy per MBq/kg and 0.005 Gy per MBq/kg
  Estimated human dosimetry, Ovaries: 0.004 Gy per MBq/kg and 0.005 Gy per MBq/kg
  Estimated human dosimetry, Red Marrow: 0.074 Gy per MBq/kg and 0.069 Gy per MBq/kg and 0.093 Gy per MBq/kg and 0.066 Gy per MBq/kg
  Estimated human dosimetry, Right Colon: 0.004 Gy per MBq/kg and 0.005 Gy per MBq/kg
  Estimated human dosimetry, Skin: 0.004 Gy per MBq/kg and 0.005 Gy per MBq/kg
  Estimated human dosimetry, Small Intestine: 0.004 Gy per MBq/kg and 0.005 Gy per MBq/kg
  Estimated human dosimetry, Spleen: 0.055 Gy per MBq/kg and 0.063 Gy per MBq/kg and 0.076 Gy per MBq/kg and 0.049 Gy per MBq/kg
  Estimated human dosimetry, Stomach: 0.004 Gy per MBq/kg and 0.005 Gy per MBq/kg
  Estimated human dosimetry, Testes: 0.004 Gy per MBq/kg and 0.005 Gy per MBq/kg
  Estimated human dosimetry, Thymus: 0.004 Gy per MBq/kg and 0.005 Gy per MBq/kg
  Estimated human dosimetry, Total Body: 0.009 Gy per MBq/kg and 0.011 Gy per MBq/kg
  Estimated human dosimetry, Urinary Bladder: 0.004 Gy per MBq/kg and 0.005 Gy per MBq/kg
  Estimated human dosimetry, Uterus: 0.004 Gy per MBq/kg and 0.005 Gy per MBq/kg
[3]; derived from the mouse model
  predicted kidney dose scaled for an adult: 0.34–0.44 mGy/MBq
[3]; extrapolated from mouse biodistribution to a 1-year-old human phantom
  predicted kidney dose: 0.026 Gy per MBq/kg
[4]; RBE of 5 for alpha radiation
  extrapolated equivalent dose to the kidneys: approximately 2 mSv/MBq
[4]; estimate from [^18F]FTT clinical data and pre-clinical uptake
  estimated SUVmax in neuroblastoma tumors: approximately 10
[4]; patient, biological half-life 5.1 hr and SUVmax of 10
  rough estimate of absorbed tumor dose: 0.17 Gy per MBq/kg
[4]; using human biodistribution results of [^18F]FTT in adults
  estimated renal absorbed dose: 0.25–0.41 mGy/MBq
